{"source": "patent US20250263370A1", "about": "(Tay Therapeutics Limited, priority 2022, published 2025)", "key": {"[1]": {"test_system": "rat anti-collagen IgG1 antibodies", "assay": "Rat anti-collagen IgG1 antibodies in serum of CIA rats at day 21", "type": "in vivo, Lewis rat", "experimental": "Blood was additionally collected from groups 1-7 via cardiac puncture following euthanasia on Day 21. […] Serum was divided into two separate tubes and stored at −75±15° C. One tube was used to analyze IgG1, and the other tube was reserved for additional analyses."}, "[2]": {"test_system": "collagen-induced arthritis", "settings": "rat, in vivo, po"}, "[3]": {"test_system": "collagen-induced arthritis", "assay": "Histopathologic analysis of H&E-stained hind limbs of CIA rats", "type": "in vivo, Lewis rat", "settings": "for pathologic observations after microscopic evaluation, overall: CIA rats, daily P.O. for 21 days", "text": "Hind limbs were collected following euthanasia, with the left limb being used for H&E staining.\nH&E-stained slides of designated tissues from animals were transferred to an independent pathologist for microscopic evaluation (SPFBio). Samples were assigned the histologic grades based on the severity of change from tissue where CIA was not induced. Histology grades assigned were as follows: grade 1 (minimal change), grade 2 (mild change), grade 3 (moderate change), grade 4 (marked change), and grade 5 (severe change).\nModerate inflammation was also associated with increased edema fluid, fibrin, and cellular debris. Marked mixed cell inflammation was characterized by dense, widespread accumulations of neutrophils and macrophages with lesser number of lymphocytes within one or more joint spaces, synovium and periarticular soft tissues. Marked inflammation was also associated with abundant edema fluid, fibrin, and cellular debris.\nMarked granulation tissue (pannus) was associated with inflammation and was characterized by widespread fibrovascular connective tissue that expanded/replaced the periarticular soft tissues of one or more joints, extended into/expanded joint spaces, was contiguous with areas of erosion/ulcer in articular cartilage and/or increased eroded surface of bone, and variably extended along the diaphysis.\nInstances of minimal increased eroded surface were not associated with fragments of bone contiguous and/or surrounded by granulation tissue. […] In some areas, increased eroded surfaces were contiguous with areas of erosion/ulcer in the articular cartilages. Instance of marked increased eroded surface were often associated with fragments of bone contiguous with and/or surrounded by granulation tissue.\nThis observation was typically most pronounced at joint margins (transition zone). The ulceration was often associated with inflammation and granulation tissue extending through the defect to the subchondral bone.\nMarked increased periosteal bone (periosteal bone formation) was characterized by extensive areas of increased bone matrix and numerous prominent osteoblasts lining trabecular surfaces along the metaphysis and/or diaphysis of one or more bones. In some areas, increased periosteal bone was contiguous with increased eroded surface and/or erosion/ulcer at articular cartilage."}, "[4]": {"settings": "hind limbs, CIA induced, 8 animals examined"}}, "note": "Where “and” joins values, the source holds several entries; their conditions need not be identical. Identical values can stand only once. Marks after values point to notes of the source that are not given here.", "data": [{"smiles": "C[C@@H]1C[C@H]2[C@@H]3CCC4=CC(=O)C=C[C@]4(C)[C@@]3(F)[C@@H](O)C[C@]2(C)[C@@]1(O)C(=O)CO", "note": "[dexamethasone]", "values": [{"measurement": "Average rat anti-collagen IgG1 levels, Mean", "setting": "[1]; Group 3 (CIA + Dex), day 21, group mean", "result": "7833.69*"}, {"measurement": "Final Rat Anti-Collagen IgG1 Antibody Con.", "setting": "[1]; Group 3 (CIA + Dexamethasone), day 21, per animal", "result": "22019.88 units/ml and 5250.27 units/ml and 1296.14 units/ml and 2541.14 units/ml and 4553.59 units/ml and 7925.50 units/ml and 7346.16 units/ml"}, {"measurement": "Rat Anti-Collagen IgG1 Antibody Con.", "setting": "[1]; before multiplying by Fold 2000, Group 3 (CIA + Dexamethasone), day 21, per animal", "result": "11.01 units/ml and 2.63 units/ml and 0.65 units/ml and 1.27 units/ml and 5.87 units/ml and 2.28 units/ml and 3.96 units/ml and 3.67 units/ml"}, {"measurement": "body weight over the course of the study", "setting": "[2]", "result": "did not exhibit weight gains over the first 13 days of the study"}, {"measurement": "pathologic observations after microscopic evaluation, overall", "setting": "[3]", "result": "No pathologic observations were noted"}, {"measurement": "pathologic observations after microscopic evaluation, overall", "setting": "[3]; listed as Dexamethasone", "result": "no histopathological observations noted"}, {"measurement": "Number of animals: Erosion/Ulcer, cartilaginous, Marked", "setting": "[3]; [4]", "result": 0}, {"measurement": "Number of animals: Erosion/Ulcer, cartilaginous, Mild", "setting": "[3]; [4]", "result": 0}, {"measurement": "Number of animals: Erosion/Ulcer, cartilaginous, Minimal", "setting": "[3]; [4]", "result": 0}, {"measurement": "Number of animals: Erosion/Ulcer, cartilaginous, Moderate", "setting": "[3]; [4]", "result": 0}, {"measurement": "Number of animals: Granulation tissue, Marked", "setting": "[3]; [4]", "result": 0}, {"measurement": "Number of animals: Granulation tissue, Mild", "setting": "[3]; [4]", "result": 0}, {"measurement": "Number of animals: Granulation tissue, Minimal", "setting": "[3]; [4]", "result": 0}, {"measurement": "Number of animals: Granulation tissue, Moderate", "setting": "[3]; [4]", "result": 0}, {"measurement": "Number of animals: Increased bone, periosteum, Marked", "setting": "[3]; [4]", "result": 0}, {"measurement": "Number of animals: Increased bone, periosteum, Mild", "setting": "[3]; [4]", "result": 0}, {"measurement": "Number of animals: Increased bone, periosteum, Minimal", "setting": "[3]; [4]", "result": 0}, {"measurement": "Number of animals: Increased bone, periosteum, Moderate", "setting": "[3]; [4]", "result": 0}, {"measurement": "Number of animals: Increased eroded surface, bone, Marked", "setting": "[3]; [4]", "result": 0}, {"measurement": "Number of animals: Increased eroded surface, bone, Mild", "setting": "[3]; [4]", "result": 0}, {"measurement": "Number of animals: Increased eroded surface, bone, Minimal", "setting": "[3]; [4]", "result": 0}, {"measurement": "Number of animals: Increased eroded surface, bone, Moderate", "setting": "[3]; [4]", "result": 0}, {"measurement": "Number of animals: Mixed cell inflammation, Marked", "setting": "[3]; [4]", "result": 0}, {"measurement": "Number of animals: Mixed cell inflammation, Mild", "setting": "[3]; [4]", "result": 0}, {"measurement": "Number of animals: Mixed cell inflammation, Minimal", "setting": "[3]; [4]", "result": 0}, {"measurement": "Number of animals: Mixed cell inflammation, Moderate", "setting": "[3]; [4]", "result": 0}, {"measurement": "Number of animals: No Visible Lesions", "setting": "[3]; [4]", "result": 8}]}]}
